According to patent publication US8637484B2, “Modulation of growth hormone receptor expression and insulin-like growth factor expression” (Antisense Therapeutic Limited, priority 2003, dated 2014):
In the oligonucleotide strings, read from the 5' end, every base follows the letter of its sugar. An asterisk marks phosphorothioate; unmarked linkages are phosphodiester. Other units and linkages are bracketed, terminal groups are in braces. A string of capitals states the bases alone. e = 2'-O-(2-methoxyethyl) (MOE); [5mC] = 5-methylcytosine; d = 2'-deoxy (DNA)

System: human growth hormone receptor mRNA
Assay: Inhibition of human growth hormone receptor mRNA levels in MCF7 cells, quantitative real-time PCR
Format: cell-based
Parameters: concentration or dose not given beside the values
Settings: averages from three experiments
Description: The human breast carcinoma cell line MCF-7 was obtained from the American Type Culture Collection (Manassas, Va.). MCF-7 cells were routinely cultured in DMEM low glucose (Gibco/Life Technologies, Gaithersburg, Md.) supplemented with 10% fetal calf serum (Gibco/Life Technologies, Gaithersburg, Md.). Cells were routinely passaged by trypsinization and dilution when they reached 90% confluence. Cells were seeded into 96-well plates (Falcon-Primaria #3872) at a density of 7000 cells/well for use in RT-PCR analysis.
When cells reached 65-75% confluency, they were treated with oligonucleotide. For cells grown in 96-well plates, wells were washed once with 100 μL OPTI-MEM™-1 reduced-serum medium (Invitrogen Corporation, Carlsbad, Calif.) and then treated with 130 μL of OPTI-MEM™-1 containing 3.75 μg/mL LIPOFECTIN™ (Invitrogen Corporation, Carlsbad, Calif.) and the desired concentration of oligonucleotide. Cells are treated and data are obtained in triplicate. After 4-7 hours of treatment at 37° C., the medium was replaced with fresh medium. Cells were harvested 16-24 hours after oligonucleotide treatment.
Total RNA was isolated using an RNEASY 96™ kit and buffers purchased from Qiagen Inc. (Valencia, Calif.) following the manufacturer's recommended procedures. Briefly, for cells grown on 96-well plates, growth medium was removed from the cells and each well was washed with 200 μL cold PBS. 150 μL Buffer RLT was added to each well and the plate vigorously agitated for 20 seconds. 150 μL of 70% ethanol was then added to each well and the contents mixed by pipetting three times up and down. The samples were then transferred to the RNEASY 96™ well plate attached to a QIAVAC™ manifold fitted with a waste collection tray and attached to a vacuum source. Vacuum was applied for 1 minute. 500 μL of Buffer RW1 was added to each well of the RNEASY 96™ plate and incubated for 15 minutes and the vacuum was again applied for 1 minute. An additional 500 μL of Buffer RW1 was added to each well of the RNEASY 96™ plate and the vacuum was applied for 2 minutes. 1 mL of Buffer RPE was then added to each well of the RNEASY 96™ plate and the vacuum applied for a period of 90 seconds. The Buffer RPE wash was then repeated and the vacuum was applied for an additional 3 minutes. The plate was then removed from the QIAVAC™ manifold and blotted dry on paper towels. The plate was then re-attached to the QIAVAC™ manifold fitted with a collection tube rack containing 1.2 mL collection tubes. RNA was then eluted by pipetting 140 μL of RNAse free water into each well, incubating 1 minute, and then applying the vacuum for 3 minutes.
Quantitation of growth hormone receptor mRNA levels was accomplished by real-time quantitative PCR using the ABI PRISM™ 7600, 7700, or 7900 Sequence Detection System (PE-Applied Biosystems, Foster City, Calif.) according to manufacturer's instructions. This is a closed-tube, non-gel-based, fluorescence detection system which allows high-throughput quantitation of polymerase chain reaction (PCR) products in real-time. As opposed to standard PCR in which amplification products are quantitated after the PCR is completed, products in real-time quantitative PCR are quantitated as they accumulate. This is accomplished by including in the PCR reaction an oligonucleotide probe that anneals specifically between the forward and reverse PCR primers, and contains two fluorescent dyes. A reporter dye (e.g., FAM or JOE, obtained from either PE-Applied Biosystems, Foster City, Calif., Operon Technologies Inc., Alameda, Calif. or Integrated DNA Technologies Inc., Coralville, Iowa) is attached to the 5′ end of the probe and a quencher dye (e.g., TAMRA, obtained from either PE-Applied Biosystems, Foster City, Calif., Operon Technologies Inc., Alameda, Calif. or Integrated DNA Technologies Inc., Coralville, Iowa) is attached to the 3′ end of the probe. When the probe and dyes are intact, reporter dye emission is quenched by the proximity of the 3′ quencher dye. […]

Substance | % INHIB [%]
272323 (antisense eT*eG*eT*eG*eT*d[5mC]*dT*dG*dA*dT*dT*d[5mC]*d[5mC]*dT*d[5mC]*eA*eG*eT*e[5mC]*eT) [compound 272323] | 67
272324 (antisense eT*eA*eT*eG*eT*d[5mC]*dA*dT*dT*dG*dG*d[5mC]*dA*dT*dT*eG*eA*eA*eA*eT) [compound 272324] | 53
272325 (antisense eA*eA*eG*eG*e[5mC]*dA*dT*dA*dA*dG*dA*dG*dA*dT*d[5mC]*eT*eG*e[5mC]*eT*eT) [compound 272325] | 66
272326 (antisense eA*e[5mC]*eT*e[5mC]*eA*dG*d[5mC]*dT*d[5mC]*d[5mC]*dT*dT*d[5mC]*dA*dG*eT*eA*eG*eG*eA) [compound 272326] | 77
272327 (antisense eG*eG*eA*e[5mC]*eA*dT*d[5mC]*d[5mC]*d[5mC]*dT*dG*d[5mC]*d[5mC]*dT*dT*eA*eT*eT*e[5mC]*eT) [compound 272327] | 60
272328 (antisense eG*eG*e[5mC]*eA*eT*dT*dG*dT*d[5mC]*d[5mC]*dA*dT*dA*dA*dG*eG*eA*eA*eG*eT) [compound 272328] | 85
272329 (antisense eA*e[5mC]*eT*eT*eT*dT*dT*dG*dG*d[5mC]*dA*dT*d[5mC]*dT*dG*e[5mC]*e[5mC]*eT*e[5mC]*eA) [compound 272329] | 63
272330 (antisense eG*eA*eT*eG*e[5mC]*dA*d[5mC]*dT*dT*dT*dT*dT*dG*dG*d[5mC]*eA*eT*e[5mC]*eT*eG) [compound 272330] | 47
272331 (antisense e[5mC]*eA*eG*eT*e[5mC]*dG*d[5mC]*dA*dT*dT*dG*dA*dG*dT*dA*eT*eG*eA*eG*eG) [compound 272331] | 67
272332 (antisense e[5mC]*eT*e[5mC]*eT*eT*dT*dG*dT*d[5mC]*dA*dG*dG*d[5mC]*dA*dA*eG*eG*eG*e[5mC]*eA) [compound 272332] | 75
272333 (antisense eG*eT*eG*e[5mC]*eT*d[5mC]*dA*d[5mC]*dA*dT*dA*dG*d[5mC]*d[5mC]*dA*e[5mC]*eA*eT*eG*eA) [compound 272333] | 72
272334 (antisense eA*eA*eG*eA*eA*dA*dG*dG*d[5mC]*dT*dA*dA*dG*dG*d[5mC]*eA*eT*eG*eA*eT) [compound 272334] | 61
272335 (antisense eA*eA*eA*eT*eA*d[5mC]*dG*dT*dA*dG*d[5mC]*dT*d[5mC]*dT*dT*eG*eG*eG*eA*eA) [compound 272335] | 47
272336 (antisense e[5mC]*eA*eA*eT*e[5mC]*dA*d[5mC]*dT*dG*d[5mC]*dT*dA*d[5mC]*dT*dA*eA*eA*e[5mC]*eA*eG) [compound 272336] | 69
272337 (antisense eA*eA*eA*e[5mC]*eA*dT*dA*dG*d[5mC]*d[5mC]*dA*dT*dT*d[5mC]*dA*eA*eT*eG*e[5mC]*eT) [compound 272337] | 39
272338 (antisense eG*eT*eG*e[5mC]*eT*dA*dT*dG*dG*dT*dT*dT*dG*d[5mC]*dA*eT*eT*e[5mC]*eA*eA) [compound 272338] | 78
272339 (antisense eG*eT*eT*eT*eT*dA*d[5mC]*dA*dT*dA*dT*d[5mC]*d[5mC]*dA*dA*eA*e[5mC]*eT*eA*eT) [compound 272339] | 72
272340 (antisense e[5mC]*eA*eT*e[5mC]*eA*dA*d[5mC]*d[5mC]*dA*dA*dG*dA*dT*dT*dT*eG*eG*eT*eG*eA) [compound 272340] | 69
272341 (antisense eG*eA*eG*eG*e[5mC]*dT*dA*dT*dA*dG*dA*dT*d[5mC]*dT*dT*eA*eT*e[5mC]*eT*e[5mC]) [compound 272341] | 65
272342 (antisense eT*eA*eG*eT*eG*dA*dG*dA*dA*dA*dG*dA*dA*dA*dG*eT*eT*eT*e[5mC]*eT) [compound 272342] | 45

Substance | % INHIB [%]
272343 (antisense eA*eA*eT*eG*e[5mC]*dT*d[5mC]*dT*d[5mC]*dA*dA*dG*dA*dA*dT*eG*eA*eT*eG*eT) [compound 272343] | 48
272344 (antisense eA*e[5mC]*eA*e[5mC]*eT*d[5mC]*dA*dA*dT*dT*d[5mC]*dT*dA*dG*d[5mC]*eT*eT*eT*eT*e[5mC]) [compound 272344] | 60
272345 (antisense e[5mC]*eA*eT*e[5mC]*eT*dA*dT*dT*dA*d[5mC]*dA*dA*dA*dT*dA*eA*e[5mC]*eA*eT*eG) [compound 272345] | 24
272346 (antisense e[5mC]*eT*e[5mC]*eT*eT*dG*dG*dA*dG*dA*dA*dA*dA*d[5mC]*d[5mC]*eA*eT*eA*eG*e[5mC]) [compound 272346] | 67
272347 (antisense eT*e[5mC]*eT*eA*e[5mC]*dA*d[5mC]*dT*dG*dA*dT*dG*dA*dT*dA*e[5mC]*eT*eT*eT*eA) [compound 272347] | 62
272348 (antisense e[5mC]*eA*e[5mC]*eA*eG*d[5mC]*dT*dT*dT*dG*dA*dA*dT*dT*dG*eA*eA*eT*eT*eA) [compound 272348] | 57
272349 (antisense eA*eG*eT*e[5mC]*eT*dT*d[5mC]*d[5mC]*dA*dA*dA*d[5mC]*dA*d[5mC]*dA*e[5mC]*eA*eG*e[5mC]*eT) [compound 272349] | 68
272350 (antisense eA*eG*eG*e[5mC]*eT*dG*dT*dT*dG*dT*dG*dA*dA*dA*dT*eA*eG*eT*eA*eA) [compound 272350] | 67
272351 (antisense eA*eT*eA*eG*eA*dA*dA*dT*dG*dT*dT*dG*dT*d[5mC]*dA*eG*eG*e[5mC]*eT*eG) [compound 272351] | 57
272352 (antisense e[5mC]*e[5mC]*eA*eA*eA*dA*dT*dG*dA*d[5mC]*dA*dT*dT*d[5mC]*dT*eG*eA*eG*eA*e[5mC]) [compound 272352] | 77
272353 (antisense eA*eT*eA*eA*eT*dG*dG*d[5mC]*dT*dT*dA*dT*dG*dT*dG*eG*e[5mC]*e[5mC]*eA*e[5mC]) [compound 272353] | 72
272354 (antisense eA*eG*eT*eT*eA*dT*dG*dT*dG*dA*d[5mC]*d[5mC]*d[5mC]*dT*dG*eA*eT*eT*eG*eA) [compound 272354] | 65
272355 (antisense eT*eT*eG*eA*eG*dT*dG*dT*dT*d[5mC]*d[5mC]*dT*dA*dA*dA*eA*eT*eG*eA*eA) [compound 272355] | 24
272356 (antisense eA*eT*eG*eG*eA*dG*dG*d[5mC]*dT*dG*dG*dA*dG*dG*dT*eT*e[5mC]*eA*eA*eA) [compound 272356] | 63
272357 (antisense eT*eA*eG*eG*eG*dT*d[5mC]*d[5mC]*dA*dT*d[5mC]*dT*dT*dT*d[5mC]*eA*eA*eG*eA*e[5mC]) [compound 272357] | 62
272358 (antisense eT*e[5mC]*eT*e[5mC]*e[5mC]*dA*dG*dA*dT*dA*dG*dA*dA*dT*d[5mC]*eT*eA*eA*eA*e[5mC]) [compound 272358] | 53
272359 (antisense eT*e[5mC]*e[5mC]*eA*eA*dA*dT*dA*dT*dT*d[5mC]*dT*dG*dG*dT*eA*e[5mC]*eT*eT*eT) [compound 272359] | 72
272360 (antisense eT*eA*eT*eT*eA*dG*dT*dT*dA*d[5mC]*d[5mC]*dT*dT*dG*dA*eG*eG*eA*eG*eA) [compound 272360] | 0
272361 (antisense eA*eT*eT*eT*eT*d[5mC]*d[5mC]*dT*dT*d[5mC]*d[5mC]*dT*dA*dG*dA*eA*eA*eA*eT*eA) [compound 272361] | 10
